A word on the Kd: it is the free concentration of one partner at which half of the binding sites on the other are occupied at equilibrium, for simple one-to-one binding.

The target in this assay is WDR5 (Δ23, residues 24-334) (Homo sapiens, UniProt P61964). Nature of the assay: biochemical. The conditions noted are these: Kd (M), FPA-based binding affinity at the WDR5 WIN site; IC50 converted to Kd by modified Cheng-Prusoff equation; average of two experiments.
In the case of `COc1cccc(C(=O)NCc2cc(-c3cn4c(n3)CCC4)ccc2N2CC(C)OC(C)C2)c1` (stereo not drawn) [B180], the equilibrium dissociation constant (Kd) was 3.07e-07 M.
For the compound `CC(NC(=O)Cc1ccc(Cl)c(Cl)c1)c1cccc(-c2cn3c(n2)CCC3)c1` (stereo not drawn) [B192], binding was characterised by a dissociation constant (Kd) of 1.25e-07 M.
Compound `O=C(C1CCc2ccccc2C1)N(Cc1cccc(-c2cn3c(n2)CCC3)c1)CC1CC1` (stereo not drawn) [B62] yielded a dissociation constant (Kd) of 2.81e-06 M.
The compound `O=C(NCc1cccc(-c2cn3c(n2)CCC3)c1)C(c1ccccc1)c1ccccc1` [B67] yielded a Kd of 1.06e-06 M.
`O=C(NCc1cccc(-c2cn3c(n2)CCC3)c1)c1cocn1` [B168] yielded a Kd of 5.75e-07 M.
Turning to `COc1cc(C(=O)NC(C)c2cccc(-c3cn4c(n3)CCC4)c2)ccc1C` (stereo not drawn) [B201], the affinity, expressed as Kd, was 2.3e-08 M.
For `O=C(Cc1ccc(F)c(Cl)c1)NCc1cc(-c2cn3c(n2)CCC3)cnc1OC1CCC1` [B224], the Kd was 6.1e-08 M.
The compound `CC(C)N(Cc1cc(-c2cn3c(n2)CCC3)ccc1OC1CCC1)C(=O)Cc1ccc(Cl)c(Cl)c1` [B148] displayed an equilibrium dissociation constant (Kd) of 1.4e-08 M.
For `COc1cc(C(=O)NCc2cc(-c3cn4c(n3)CCC4)ccc2N2CCOCC2)ccc1C` [B194], the Kd came to 2.04e-06 M.
In turn, `Cc1ccc(C(=O)NCc2cccc(-c3cn4c(n3)CCC4)c2)cc1Br` [B171] displayed a dissociation constant (Kd) of 6.26e-07 M.
Under `O=C(Cc1ccc(F)c(Cl)c1)N(Cc1cc(-c2cn3c(n2)CCC3)ccc1N1CCOCC1)CC1CCOCC1` [B202] stands 4.56e-07 M; under `COc1cccc(C(=O)NCc2cc(-c3cn4c(n3)CCC4)ccc2OC2CCCC2)c1` [B117], 1e-05 M; under `O=C(NCc1cccc(-c2cn3c(n2)CCC3)c1)c1ccc(Cl)cc1Cl` [B4], 3.9e-06 M.
For `Cc1cnc(Cl)c(C(=O)NCc2cccc(-c3cn4c(n3)CCC4)c2)c1` [B169], the Kd was determined as 6.68e-07 M.
Take `Cc1cc(NC(=O)NCc2cccc(-c3cn4c(n3)CCC4)c2)ccc1Cl` [B45]: the affinity, expressed as Kd, was 3.91e-07 M.
As to `O=C(NCc1cccc(-c2cn3c(n2)CCC3)c1)c1cccc2cccnc12` [B14], the Kd was found to be 5.19e-06 M.
`O=C(NCc1cccc(-c2cn3c(n2)CCC3)c1)c1cc(Cl)cc(Cl)c1` [B5] returned a Kd of 2.28e-06 M.
As to `CC(=O)N1CCCC(C(=O)NCc2cc(-c3cn4c(n3)CCC4)ccc2N2CCOCC2)C1` (stereo not drawn) [B156], the Kd is 6.8e-08 M.
The result for `O=C(Cc1ccc(Cl)c(Cl)c1)N(Cc1cc(-c2cn3c(n2)CCC3)ccc1N1CCCC1)CC1CC1` [B146] reads 4.16e-07 M.
Turning to `O=C(NCc1cccc(-c2cn3c(n2)CCC3)c1)c1ccc(Cl)nc1` [B17], the Kd turned out to be 1.86e-06 M.
For the compound `CC(C)C(NC(=O)Cc1ccc(F)c(Cl)c1)c1cccc(-c2cn3c(n2)CCC3)c1` (stereo not drawn) [B221], binding was characterised by a dissociation constant (Kd) of 1.17e-07 M.
For `COc1cccc(C(=O)N(Cc2cccc(-c3cn4c(n3)CCC4)c2)CC2CCCC2)c1` [B41], the Kd amounted to 2.95e-07 M.
Under `COc1cccc(C(=O)N(Cc2cccc(-c3cn4c(n3)CCC4)c2)C(C2CC2)C2CC2)c1` [B81] stands 1.18e-07 M; under `CN1CCN(c2ccc(-c3cn4c(n3)CCC4)cc2CNC(=O)Cc2ccc(Cl)c(Cl)c2)CC1` [B142], 1.2e-07 M; under `CC(NC(=O)Cc1ccc(F)c(Cl)c1)c1cc(-c2cn3c(n2)CCC3)ccc1F` (stereo not drawn) [B222], 9.9e-08 M.
Consider `CC(=O)N1CCCC(C(=O)N(Cc2cc(-c3cn4c(n3)CCC4)ccc2N2CCOCC2)CC2CC2)C1` (stereo not drawn) [B176], for which the equilibrium dissociation constant (Kd) turned out to be 6.3e-08 M.
The result for `COc1cc(C(=O)N(Cc2cc(-c3cn4c(n3)CCC4)ccc2N2CCOCC2)CC2CCOCC2)ccc1C` [B204] reads 2.6e-08 M; that for `COc1ccc(C(=O)N(Cc2cccc(-c3cn4c(n3)CCC4)c2)C(C2CC2)C2CC2)cc1OC` [B55], 5.25e-06 M; that for `CCC(NC(=O)c1ccc(C)c(OC)c1)c1cccc(-c2cn3c(n2)CCC3)c1` (stereo not drawn) [B215], 1.7e-08 M.
`COc1cccc(C(=O)N(Cc2cc(-c3cn4c(n3)CCC4)ccc2N2CCCC2)CC2CC2)c1` [B102] showed a Kd of 5.1e-07 M.
As for `CS(=O)(=O)N1CCCCC1C(=O)NCc1cccc(-c2cn3c(n2)CCC3)c1` (stereo not drawn) [B182], the dissociation constant Kd amounted to 1.09e-06 M.
`CC1CN(c2ccc(-c3cn4c(n3)CCC4)cc2CNC(=O)Cc2ccc(Cl)c(Cl)c2)CC(C)O1` (stereo not drawn) [B165] displayed a dissociation constant Kd of 3.32e-06 M.
The compound `O=C(NCc1cccc(-c2cn3c(n2)CCC3)c1)c1ccc(F)cc1` [B3] came in with a dissociation constant Kd of 5e-06 M.
The compound `COc1cccc(C(=O)N(Cc2cccc(-c3cn4c(n3)CCC4)c2)CC(C)C)c1` [B85] returned a Kd of 2.85e-06 M.
The compound `O=C(Cc1ccc2c(c1)OCO2)NCc1cccc(-c2cn3c(n2)CCC3)c1` [B154] displayed a Kd of 1e-09 M.
In turn, `O=C(NCc1cccc(-c2cn3c(n2)CCC3)c1)C1CCCN(C(=O)CC(F)(F)F)C1` (stereo not drawn) [B184] yielded a Kd of 5.8e-08 M.
In the case of `Cc1ccc(C(=O)NCc2cccc(-c3cn4c(n3)CCC4)c2)cc1C` [B21, N-(3-(6,7-Dihydro-5H-pyrrolo[1,2-a]imidazol-2-yl)benzyl)-3,4-dimethylbenzamide], the affinity, expressed as Kd, was 7.04e-07 M.
`COC(=O)c1cc(CN(CC2CC2)C(=O)c2ccc(OC)c(OC)c2)cc(-c2cn3c(n2)CCC3)c1` [B69]: the Kd was 3.05e-07 M.
`COc1cccc(C(=O)NCc2cc(-c3cn4c(n3)CCC4)ccc2OCc2ccccc2)c1` [B115] yielded a dissociation constant (Kd) of 1.3e-08 M.
Consider `N#Cc1cccc(C(=O)NCc2cccc(-c3cn4c(n3)CCC4)c2)c1` [B172], for which binding was characterised by a dissociation constant (Kd) of 2.18e-07 M.
`Cc1cc(C(=O)N(C)Cc2cccc(-c3cn4c(n3)CCC4)c2)ccc1Cl` [B38] came in with a Kd of 4.48e-07 M.
Take `CC(C(=O)NCc1cccc(-c2cn3c(n2)CCC3)c1)c1ccccc1` (stereo not drawn) [B84]: the Kd is 4.35e-07 M.
With `O=C(CCc1cccnc1)NCc1cccc(-c2cn3c(n2)CCC3)c1` [B30], the Kd was determined as 3.36e-06 M.
`CC(c1cccc(-c2cn3c(n2)CCC3)c1)N(CC1CC1)C(=O)Cc1ccc(Cl)c(Cl)c1` (stereo not drawn) [B190] came in with a Kd of 1.1e-08 M.
Under `O=C(Cc1c[nH]c2ccccc12)NCc1cccc(-c2cn3c(n2)CCC3)c1` [B122] stands 2.64e-07 M.
The compound `O=C(CCc1cccc(Cl)c1)NCc1cccc(-c2cn3c(n2)CCC3)c1` [B158] registered a Kd of 4.99e-06 M.
The result for `COc1cccc(C(=O)NCc2cc(-c3cn4c(n3)CCC4)ccc2-c2ccccc2)c1` [B126] reads 5.7e-08 M.
In turn, `O=C(Cc1ccc(Br)cc1)NCc1cccc(-c2cn3c(n2)CCC3)c1` [B106] came in with a Kd of 1.33e-07 M.
For the compound `O=C(Cc1ccc(Cl)c(Cl)c1)NCc1cc(-c2cn3c(n2)CCC3)ccc1OC1CCCC1` [B109], binding was characterised by a dissociation constant (Kd) of 1e-05 M.
`CC(=O)N1CCCCC1C(=O)NCc1cccc(-c2cn3c(n2)CCC3)c1` (stereo not drawn) [B188] registered a Kd of 3.3e-08 M.
Consider `COc1cccc(C(=O)N(Cc2cccc(-c3cn4c(n3)CCC4)c2)CC2CCCCC2)c1` [B36], for which binding was put at a Kd of 2.58e-07 M.
Under `C[C@H](C(=O)N(Cc1cccc(-c2cn3c(n2)CCC3)c1)CC1CC1)c1ccccc1` [B61] stands 6.45e-07 M.
For `O=C(CC1CCNCC1)NCc1cccc(-c2cn3c(n2)CCC3)c1` [B150], binding was characterised by a dissociation constant (Kd) of 1e-05 M.
In the case of `CS(=O)(=O)NCc1cccc(C(=O)NCc2cccc(-c3cn4c(n3)CCC4)c2)c1` [B183], the affinity, expressed as Kd, was 1.34e-06 M.
Consider `O=C(Cc1cccnc1)NCc1cccc(-c2cn3c(n2)CCC3)c1` [B152], for which binding was put at a Kd of 1.23e-06 M.
Under `CC(NC(=O)Cc1ccc(F)c(Cl)c1)c1cc(-c2cn3c(n2)CCC3)ccc1OC1CCC1` (stereo not drawn) [B212] stands 4.7e-08 M; under `O=C(NCc1cccc(-c2cn3c(n2)CCC3)c1)c1ccc(O)nc1` [B26], 2.68e-06 M; under `O=C(Cc1cccc(OC(F)(F)F)c1)NCc1cccc(-c2cn3c(n2)CCC3)c1` [B137], 2.6e-08 M.
Compound `O=C(Nc1cc(Cl)cc(Cl)c1)N(Cc1cccc(-c2cn3c(n2)CCC3)c1)CC1CC1` [B50] gave an equilibrium dissociation constant (Kd) of 4.8e-07 M.
As to `O=C(Cc1cccc(Br)c1)NCc1cccc(-c2cn3c(n2)CCC3)c1` [B136], the Kd came to 3.09e-07 M.
As for `COc1cc(C(=O)NCc2cc(-c3cn4c(n3)CCC4)ccc2N2CCOCC2C)ccc1C` (stereo not drawn) [B203], the equilibrium dissociation constant (Kd) is 2.3e-08 M.
On to `O=C(Cc1ccc(Cl)c(Cl)c1)NCc1cc(-c2cn3c(n2)CCC3)ccc1-c1ccccc1` [B111], for which the Kd stood at 2e-08 M.
`O=C(C1CC1c1ccccc1)N(Cc1cccc(-c2cn3c(n2)CCC3)c1)CC1CC1` (stereo not drawn) [B51]: the equilibrium dissociation constant (Kd) came to 4.85e-07 M.
Under `CCOc1cccc(C(=O)NCc2cccc(-c3cn4c(n3)CCC4)c2)c1` [B78] stands 1.48e-07 M; under `COc1cccc(C(=O)N(Cc2cc(-c3cn4c(n3)CCC4)ccc2F)CC2CC2)c1` [B90], 4.24e-05 M.
Compound `O=C(Cc1ccc2c(c1)CCO2)NCc1cccc(-c2cn3c(n2)CCC3)c1` [B153] had a dissociation constant (Kd) of 6.04e-07 M.
Compound `O=C(Cc1ccc(Cl)c(Cl)c1)N(Cc1cc(-c2cn3c(n2)CCC3)ccc1OCC1CC1)CC1CC1` [B100] returned a Kd of 2e-07 M.
Compound `O=C(NCc1cccc(-c2cn3c(n2)CCC3)c1)c1cnco1` [B170] came in with a dissociation constant (Kd) of 9.24e-07 M.
Compound `COc1cccc(CN(Cc2cccc(-c3cn4c(n3)CCC4)c2)C(=O)c2ccc(OC)c(OC)c2)c1` [B64] came in with a Kd of 5.38e-07 M.
In turn, `O=C(Cc1ccc(Cl)c(Cl)c1)N(Cc1cc(-c2cn3c(n2)CCC3)ccc1N1CCOCC1)CC1CC1` [B175, N-(Cyclopropylmethyl)-2-(3,4-dichlorophenyl)-N-(5-(6,7-dihydro-5H-pyrrolo[1,2-a]imidazol-2-yl)-2-morpholinobenzyl)acetamide] returned a Kd of 5.2e-08 M.
`CC(C(=O)N(Cc1cccc(-c2cn3c(n2)CCC3)c1)C(C)C)c1cc(Cl)cc(Cl)c1` (stereo not drawn) [B75] registered an equilibrium dissociation constant (Kd) of 4.1e-07 M.
Compound `CCOc1cccc(C(=O)N(Cc2cccc(-c3cn4c(n3)CCC4)c2)CC2CC2)c1` [B79] registered a Kd of 4.91e-07 M.
Under `CC(=O)NCc1cccc(C(=O)NCc2cccc(-c3cn4c(n3)CCC4)c2)c1` [B189] stands 7.41e-07 M.
The result for `CCC(=O)N1CCCC(C(=O)NCc2cccc(-c3cn4c(n3)CCC4)c2)C1` (stereo not drawn) [B181] reads 1e-05 M; that for `O=C(Cc1cccc(Cl)c1)NCc1cccc(-c2cn3c(n2)CCC3)c1` [B133], 6e-06 M; that for `COc1cccc(C(=O)NCc2cc(-c3cn4c(n3)CCC4)ccc2N2CCCCC2)c1` [B103], 1.04e-07 M.
As to `COc1ccc(C(=O)N(Cc2cccc(-c3cn4c(n3)CCC4)c2)C(C)c2ccccc2)cc1OC` (stereo not drawn) [B70], binding was characterised by a dissociation constant (Kd) of 5.98e-06 M.
The result for `COc1cccc(C(=O)NCc2cc(-c3cn4c(n3)CCC4)ccc2N2CCC(OC)C2)c1` (stereo not drawn) [B178] reads 1.73e-06 M.

(Values after US10160763B2, “WDR5 inhibitors and modulators” (Vanderbilt University, priority 2016, dated 2018).)
